Source: patent publication US20120252773A1, “Method and composition for inhibiting cell proliferation and angiogenesis” (priority 2005, published 2012)
Read-outs that look alike come from different tables or passages of the source.

Columns and labels:
[1] = test system: Human Dermal Microvascular Endothelial Cells (HDMVEC); assay: Growth inhibition of HDMVEC cells, MTT, 7 days; assay type: cell-based; conditions: Endothelial cell
Experimental: (§1) To measure the inhibitory activity of (2) on growth of HDMVEC cells (Clonetics, San Diego, Calif.), 2,000 cells were seeded in each well of a 96-well plate in […] of EGM medium (Clonetics) supplemented with 5% fetal bovine serum (Sigma). The plate was incubated at 37° C. in a tissue culture incubator for 24 h, and then various concentrations of (2) dissolved in EGM were added to each well in 5-10 μl aliquots. Four wells were used for each concentration. Medium in each well was renewed with fresh test solution added every other day. After 7 days of culture, the viable cells were measured using reagents from an MTT kit (Promega Corporation, Madison, Wis.), using instructions provided by the supplier. The number of viable cells in treated wells relative to those in control wells gave the percentage of inhibition.
The procedures of Example 3 were carried out to evaluate the inhibitory effect of various compounds of the invention on the growth of HDMVEC cells (Clonetics, San Diego, Calif.).

[2] = test system: PC-3 human prostate tumors; assay: PC-3 xenograft nude mouse model, tumor growth; assay type: in vivo
Experimental: Compound (2) was evaluated using the xenograft nude Balb-C athymic mouse model for its in vivo anti-tumor activity against PC-3 human prostate tumors. The mice were obtained from Taconic Laboratories. The experiment was conducted by subcutaneously implanting PC-3 cells to the right flanks of BALB-C athymic nude mice (Taconic Laboratories) followed by observing tumor growth daily. There were 8 mice in the control and each treatment groups. When tumor volumes reached 70-100 mm^3, drug delivery was initiated at 3 dose levels of (2). The compound was delivered orally as follows: 0 mg/kg to the control group, 10 mg/kg to one treatment group, and 30 mg/kg to a second treatment group, each once daily for 28 days; and 100 mg/kg to a third treatment group, once weekly. Tumor volumes were measured twice weekly and body weights once weekly.
Mice were treated as in Example 7, except that one group received no oral (2), but instead received 7.5 mg/kg i.p. paclitaxel (Sigma) when the tumors reached 70-100 mm^3, while another group received both (2) orally at 10 mg/kg and paclitaxel i.p. at 7.5 mg/kg.

[3] = test system: human endometrial Ishikawa cells; assay: Estrogenic activity, alkaline phosphatase, Ishikawa cell-based assay; conditions: 72 hours
Experimental: Ishikawa cell based assays were run in parallel on human endometrial Ishikawa cells treated with compound (2) or with 2-methoxyestradiol. 2-Methoxyestradiol is a compound reported in the literature as an anti-angiogenic agent. Cells were cultured in 96-well plates for 48 hours in estrogen- and phenol red-free medium (DMEM/Hamm's F12 medium) containing 5% fetal bovine serum stripped of endogenous estrogens with dextran coated charcoal (Sigma). Compound (2) or other test compounds were then added to the cells and culturing was continued for an additional 72 hours. To the control cells (no (2)), 10^−9 M of […] was added. At the end of 72 hours, alkaline phosphatase activity was measured by adding 5 mM p-nitrophenyl phosphate, 0.24 mM MgCl2, and 1 M diethanolamine (pH 9.8) to the cells while the 96-well plates were kept on ice. The plates were then warmed to room temperature, and the yellow color from the production of p-nitrophenol was measured after 2-3 hours using an ELISA plate reader at a wavelength of 405 nm. The estrogenic activity was defined as the alkaline phosphatase activity stimulated by the test compounds alone as a percentage of that stimulated by estradiol at 10^−9 M. Stimulation by estradiol at 10^−9 M was taken as 100%.

[4] = test system: A549 human non-small cell lung cancer cells; assay: Cell growth inhibition, MTT, 7 days, A549; assay type: cell-based; conditions: A549, 7 days, Example 15
Experimental: as §1
Compound (2) was evaluated in several different human cancer cell lines for its effects on cell growth. […]
To measure the inhibitory activity of test articles on growth of NSCLC cells, 2,000 cells were seeded in each well of a 96-well plate in […] of RPMI-1640 medium supplemented with 2 mM glutamine and 10% fetal bovine serum (growth medium). […] After 7 days of culture, the viable cells were measured using reagents from MTT kit (Promega Corporation, Madison, Wis.), using instructions provided by the supplier. […]

[5] = test system: DU-145 Human Androgen-Independent Prostate Cancer Cells; assay: Apoptosis by TUNEL assay in DU-145 cells; assay type: cell-based; conditions: DU-145, 10 μM, 24 hours
Experimental: DU-145 cells (ATCC) were treated with 10 μM (2) for 24 hours. Apoptosis was measured by the terminal deoxynucleotidyl transferase mediated dUTP nick end labeling (TUNEL) assay. This assay was conducted using the Apoptosis Detection Kit (Promega, Madison, Wis.) following the instructions provided by the manufacturer. Briefly, DU-145 cells were incubated with (2) for 24, 48, or 72 hours. At the end of incubation, cells were fixed with freshly prepared 4% methanol-free paraformaldehyde in PBS, washed, and then permeabilized in 0.2% Triton X-100 in PBS. The cells on the slides were then incubated with Tdt enzyme for 1 h at 37° C., stained with propidium iodide, and examined under a fluorescence microscope. Fragmented DNA was made visible with green fluorescence stain within the apoptotic cells.

SMILES: C[C@@H]1Cc2cc(O)ccc2C2CCC3(C)/C(=C/COCCN(C)C)CCC3C21 (stereo partly drawn) [Compound (2), (E)-3-Hydroxy-7α-methyl-21-[(2-dimethylamino)ethoxy]-19-norpregna-1,3,5(10),17(20)-tetraene]
- IC50 ([1]; 168 h, 7 days of culture, MTT, read-out: IC50 value, growth of HDMVEC cells): ~80 nM
- IC50 ([1]; HDMVEC growth, procedures of Example 3, read-out: Inhibitory Effect (IC50 Value)): 80 nM
- tumor growth rate ([2]; 10 mg/kg oral once daily for 28 days): markedly decreased growth rates
- reduction of microvascularization compared to control group ([2]; 30 mg/kg oral): about 50%
- tumor growth rate ([2]; 30 mg/kg oral once daily for 28 days): markedly decreased growth rates
- tumor growth rate ([2]; 100 mg/kg oral once weekly): markedly decreased growth rates
- estrogenic activity (alkaline phosphatase stimulation relative to estradiol at 10^−9 M) [3]: essentially no such activity
- growth of NSCLC cells [4]: inhibited the growth of NSCLC cells in a dose-response manner
- inhibitory activity compared with Cisplatin tested in parallel [4]: much more potent than that of Cisplatin
- apoptosis, fragmented DNA (TUNEL) [5]: quite a few pieces of fragmented DNA were evident
